Results: publication PMC2919388, “A Screening Pipeline for Antiparasitic Agents Targeting Cryptosporidium Inosine Monophosphate Dehydrogenase” (PLoS Neglected Tropical Diseases, 2010)
Where two headings read alike, the source gives them in different places.

Legend:
[1] = system: HCT-8 cells; test: Fluorescent HCT-8 host cell growth assay; type: cell-based, human; details: for effect on host cell (HCT-8) growth: in words; for activity at 25 µM: Homo sapiens, HCT-8, compound at 25 μM, relative to DMSO alone
Procedure: HCT-8 cells were transfected with plasmid pmaxGFP (Amaxa) using Lipofectamine (Invitrogen). Fluorescent lines were then selected and cloned using cell sorting. Confluent monolayers of pmaxGFP expressing cells were harvested from T75 flasks and passed through a 40 µm cell strainer. Cells were seeded at 4000 cells per well into black, optical quality, thin bottom, 96-well plates. All test compounds were diluted in DMSO as described. The fluorescence was read daily with a SpectraMax M22/M2e (Molecular Devices) plate reader (Ex 485, Em 530) for 6–7 days. Percent inhibition was calculated on a day within the exponential phase of growth.

[2] = biological target: CpIMPDH (Cryptosporidium parvum, UniProt Q8T6T2); details: cited from earlier work
Chain of CpIMPDH (Q8T6T2 whole entry): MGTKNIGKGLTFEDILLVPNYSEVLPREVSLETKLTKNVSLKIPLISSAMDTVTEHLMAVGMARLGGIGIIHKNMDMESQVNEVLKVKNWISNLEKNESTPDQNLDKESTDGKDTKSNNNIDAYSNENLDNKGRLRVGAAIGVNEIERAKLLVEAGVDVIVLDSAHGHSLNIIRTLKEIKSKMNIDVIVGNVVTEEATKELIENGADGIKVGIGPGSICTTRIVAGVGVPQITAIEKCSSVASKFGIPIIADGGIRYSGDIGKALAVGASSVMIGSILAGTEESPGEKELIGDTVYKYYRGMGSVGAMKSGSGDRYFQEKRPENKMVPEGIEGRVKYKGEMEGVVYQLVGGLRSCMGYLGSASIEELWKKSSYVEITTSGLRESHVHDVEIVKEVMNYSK

[3] = system: T. gondii-CpIMPDH; test: Fluorescent T. gondii growth assay, CpIMPDH reporter strain; type: cell-based, Toxoplasma gondii; details: for Selectivity = EC50(T. gondii-wild-type)/EC50(T. gondii-CpIMPDH): Figure 5 Sel
Excerpt: (§1) Wild-type T. gondii and T. gondii-ΔHXGPRT parasites were transfected with plasmid ptubYFPYFsagCAT [37] which drives constitutive cytoplasmic expression of two copies of the yellow fluorescent protein. Similarly, plasmid pCTR2T [38] was transfected into T. gondii-CpIMPDH resulting in constitutive cytoplasmic expression of a tandem of the tomato variant of the red fluorescent protein [39]. Fluorescent parasites were selected and cloned by cell sorting using a MoFlo Legacy instrument (Beckman Coulter, Inc). Growth of fluorescent clones was monitored in 96 well plates as previously described. Briefly, fluorescence was read daily with a SpectraMax M22/M2e (Molecular Devices) plate reader (Ex 485, Em 530) for 6–7 days. For each of the three fluorescent T. gondii clones percent growth inhibition was calculated on a day within the exponential phase of growth for the purpose of determining an IC50 for each compound.
To facilitate screening of antiparasitic activity, we constructed a T. gondii reporter parasite that mirrors the Cryptosporidium purine metabolism. Figure 1 summarizes the main differences between the two parasites in this pathway. We started with a T. gondii knockout mutant that, like C. parvum, lacks the ability to salvage xanthine and guanine via HXGPRT (T. gondii-ΔHXGPRT [41]) and introduced the CpIMPDH gene under the control of a T. gondii promoter. Next the native T. gondii IMPDH gene was disrupted by replacing the entire coding sequence with a chloramphenicol acetyl transferase cassette using a new cosmid-based gene targeting approach. […] This manipulation created strain T. gondii-CpIMPDH-ΔHXGPRT-ΔTgIMPDH. Lastly, we introduced a fluorescent protein cassette and isolated stable transgenic parasites by cell sorting. The resulting strain is referred to as T. gondii-CpIMPDH. […] We similarly engineered fluorescent versions of wild-type T. gondii and T. gondii-ΔHXGPRT to serve as controls.
(§2) Supplementary file pntd.0000794.s002.tif: Figure S2 Obtaining an EC50 value for T. gondii growth. Fluorescent T. gondii parasites are seeded into 96-well plates and spiked with test compound. Fluorescence is measured daily with a SpectraMax M22/M2e (Molecular Devices) plate reader for 6–7 days. The fluorescence readings on a day during the exponential phase of the growth curve, for example day 4 in A, are used to calculated percent growth inhibition. These values are fitted using the 4 parameter model y = D+(A–D)/(1+(x/C)^B) where D is the minimum value, A is the maximum value, C is the EC50 and B is the Hill coefficient, using the SoftMax Pro v5 software, as illustrated in B. The absolute EC50 is recorded at the x intercept where y = 50. (0.33 MB TIF) Click here for additional data file.

[4] = system: wild-type T. gondii; test: Fluorescent T. gondii growth assay, wild-type strain; type: cell-based, Toxoplasma gondii
Excerpt: as §1, §2

[5] = system: T. gondii-ΔHXGPRT; test: Fluorescent T. gondii growth assay, ΔHXGPRT strain; type: cell-based; details: Toxoplasma gondii, read-out: T. gondii model EC50 ΔHXGPRT, T. gondii-ΔHXGPRT
Excerpt: as §1, §2

[6] = system: C. parvum; test: High-content imaging C. parvum growth assay (FITC-VVL); type: cell-based, Cryptosporidium parvum; details: for EC50: Cryptosporidium parvum, HCT-8, 48 h, growth in HCT-8 cells, 48 hours; for potency relative to paromomycin: anticryptosporidial activity
Procedure: The human ileocecal adenocarcinoma epithelial cell line, HCT-8, was used to support C. parvum infection in vitro. HCT-8 cells were maintained in RPMI-1640 (Hyclone) supplemented with 10% FBS, 1 mM sodium pyruvate, 50 U/m penicillin, 50 µg/ml streptomycin, and amphotericin B. Cryptosporidium parvum oocysts were a kind gift from either Dr. Mead (Emory University) or Dr. Kissinger (University of Georgia). HCT-8 cells (2×10^5) were seeded into black, optical quality, thin bottom, 96-well plates (DB Falcon) to achieve a 70% confluent monolayer on the day of infection. To facilitate oocyst excystation, a procedure described by Gut et al., was followed. Briefly, oocysts were washed twice with 1 ml of PBS (pH 7.2), incubated for 10 minutes at 37°C in 1 ml 10 mM of HCl and then incubated for a further 10 minutes in 0.2 ml of 200 µM sodium taurocholate at 15°C [40]. This oocyst suspension was diluted directly with DMEM (Hyclone) supplemented with 2% FBS, 50 U/ml penicillin, 50 µg/ml streptomycin, amphotericin B and 0.2 mM L-glutamine (infection medium) to inoculate host cell monolayers at 5×10^5 oocysts per well. Host cell monolayers were incubated for 3 hours at 37°C prior to removal of unexcysted oocysts by aspiration and PBS wash. Infection medium was then added to the monolayers and infection was allowed to progress for 48 hours.
The VVL IFA was performed in a 96-well format. Following 48 hours of culture C. parvum infected HCT-8 cells were washed with PBS and fixed with 0.2 ml/well of 3% paraformaldehyde/PBS, permeabilized with 0.25% Triton-X-100/PBS and blocked with 4% BSA/PBS. 0.1 ml of fluorescein (FITC)-conjugated VVL (Vector Labs 0.5 µg/ml) in 1% BSA/PBS was applied to wells and incubated for 45 minutes. The plates were washed twice with 200 µl/well of PBS. In the first wash DAPI was included at 0.1 µg/ml. Finally 200 µl/well of PBS was added to the plates prior to storage at 4°C protected from light.
Confocal images were acquired using a BD Biosciences Bioimager P435. The instrument was programmed to automatically change position and focus, capture montage images of 9–16, 40× fields per well, and then compress and save the image files. Object finding algorithms were developed for the recognition of FITC-VVL labelled C. parvum parasites and DAPI labelled host cell nuclei using Attovision Software (BD Biosciences). Briefly, to identify FITC-VVL labelled parasites, the object finding algorithm included, a flat field correction, a polygon shape setting, a 3×3 rolling ball filter, manual pixel intensity thresholding (100 min – 4095 max), and minimum and maximum object size cut-offs of 5 pixels and 350 pixels respectively. The algorithm optimised for finding DAPI labelled host cell nuclei also included flat field correction and polygon shape setting, but applied a 25×25 rolling ball filter which is more suitable for larger objects, an automated pixel intensity threshold, minimum and maximum object size cut-offs of 200 pixels and 4000 pixels respectively, and a watershed step with an erosion factor of 8 to aid in the separation of adjacent densely packed nuclei. Note that the intensity and area size cut off exclude detection of the much smaller parasite nuclei (the human genome is three hundred times larger than the C. parvum genome).
The object finding analysis steps described above recorded the number and area of objects per montage image. The output files along with a plate map file were then passed to an automated analysis pipeline (Pipeline Pilot Software, Accelrys) to calculate the mean number of parasites, the ratio of parasite number to host cell nuclei number, the mean area of parasites and host cell nuclei by well, and the percentage growth by treatment as compared to the no drug control. These analyses were exported in graphical format for each plate and the numerical values tabulated in html format. […]

[7] = Toxoplasma gondii, read-out: T. gondii model EC50 CpIMPDH, T. gondii-CpIMPDH, absence of xanthine
[8] = Toxoplasma gondii, wild-type T. gondii, no added xanthine, read-out: T. gondii model EC50 WT
[9] = wild-type T. gondii, no added xanthine, read-out: T. gondii model EC50 WT

Structure (SMILES) | effect on host cell (HCT-8) growth [1] | CpIMPDH inhibition by MPA ([2]; at concentrations active against TgIMPDH) | EC50 [3, 7] [µM] | EC50 ([4]; Toxoplasma gondii, media supplemented with xanthine (0.33 mM), read-out: EC50 wild-type T. gondii with xanthine) [µM] | EC50 [4, 8] [µM] | EC50 [5] [µM] | activity at 25 µM [1] [%] | Selectivity = EC50(T. gondii-wild-type)/EC50(T. gondii-CpIMPDH) [3] | EC50 [6] [µM] | selectivity for the T. gondii-CpIMPDH parasite over wild-type T. gondii [3] [fold] | potency relative to paromomycin [6] [×] | inhibition of HCT-8 cell growth ([1]; at 12.5 µM and 25 µM) | EC50 [4, 9] [µM] | IC50 ([2]; read-out: CpIMPDH Inhibition IC50 - BSA) [µM] | EC50 ([3]; read-out: T. gondii model EC50 CpIMPDH, T. gondii-CpIMPDH, absence of xanthine) [µM]
CCCC(=O)[O-].[Na+] [sodium butyrate, reference compound] | did inhibit HCT-8 growth in a dose-dependent manner | – | – | – | – | – | – | – | – | – | – | – | – | – | –
COc1c(C)c2c(c(O)c1C/C=C(\C)CCC(=O)O)C(=O)OC2 [MPA, mycophenolic acid, reference compound] | – | not inhibited | > 65 | ≥ 78 | 2.6 | 0.29 | – | – | – | – | – | – | – | – | –
C[C@H](Oc1ccnc2ccccc12)c1cn(-c2ccc(Cl)c(Cl)c2)nn1 [Compound A107] | – | – | 2.4 | – | 6 | 7 | 64 ± 16 | 3.1 | < 13 | – | – | – | – | – | –
C[C@@H](Oc1cc[n+]([O-])c2ccccc12)c1cn(-c2ccc(Cl)cc2)nn1 [Compound A110] | – | – | < 0.2 | – | 23 ± 2 | > 25 | 94 ± 12 | > 120 | < 0.8 | ≥ 36 | > 100 | – | – | – | –
CC(Oc1cc[n+]([O-])c2ccccc12)c1cn(-c2ccc(Cl)c(Cl)c2)nn1 (centres unmarked) [Compound A103] | – | – | 0.5 ± 0.4 | – | 19 ± 4 | 17 ± 4 | 33 ± 6 | 36 | < 0.8 | ≥ 36 | > 100 | inhibit HCT-8 cell growth significantly | ≥ 20 | – | –
C[C@@H](Oc1ccnc2ccccc12)c1cn(-c2ccc(Cl)c(Cl)c2)nn1 [Compound A105] | do not inhibit host cell growth | – | – | – | – | – | 81 ± 13 | 2.9 | 6 to 13 | – | – | – | – | – | –
CC(Oc1ccnc2ccccc12)c1cn(-c2ccc(Cl)cc2)nn1 (centres unmarked) [Compound A89] | – | – | 0.4 ± 0.2 | – | 4.9 ± 0.9 | 6 ± 2 | 43 ± 2 | 14 | < 13 | – | – | – | – | – | –
CC(Oc1ccc(Cl)c2ccccc12)c1cn(-c2ccc(Cl)cc2)nn1 (centres unmarked) [Compound A82] | do not inhibit host cell growth | – | – | – | 5 ± 2 | – | 108 ± 2 | 0.9 | 6 to 13 | – | – | – | ≤ 10 | 0.09 ± 0.03 | ≤ 10
C[C@H](Oc1ccnc2ccccc12)c1cn(-c2ccc(C#N)c(Cl)c2)nn1 [Compound A108] | – | – | 3.9 | – | 5 | – | 47 ± 14 | 1.3 | 12 to 25 | – | – | – | – | – | –
CC(Oc1ccnc2ccccc12)c1cn(-c2ccc(C#N)c(Cl)c2)nn1 (centres unmarked) [Compound A92] | – | – | 5 ± 1 | – | 9 ± 2 | 8 ± 4 | 47 ± 1 | 1.6 | 3 to 6 | – | – | – | – | – | –
CC(Oc1ccnc2ccccc12)c1cn(-c2ccc(Cl)c(Cl)c2)nn1 (centres unmarked) [Compound A90] | do not inhibit host cell growth | – | – | – | 5 ± 3 | – | 77 ± 5 | 1.5 | 6 to 13 | – | – | – | ≤ 10 | – | –
